As a reminder, the inhibition is the change of the read-out against control, counted positive when it falls. In general, half-life refers to the time needed for the level to fall by half in the phase considered. A high value points to slow loss. As usually defined, the bioavailability is dose-corrected exposure relative to a reference, in per cent. High values mean good availability, low ones poor availability. Broadly, the CL/F is the apparent clearance, not corrected for the fraction that reaches the circulation. One may read the clearance as the volume of plasma or blood freed of the substance per unit of time. A high value points to efficient removal. As a reminder, the AUC(0-inf) is total exposure, with the tail of the curve extrapolated. The low end stands for low exposure, the high end for high exposure. In general, MRT refers to the average time that molecules of a dose stay in the body.

The source of these data is ChEMBL document CHEMBL4145522, “Design, synthesis and biological evaluation of non-secosteriodal vitamin D receptor ligand bearing double side chain for the treatment of chronic pancreatitis” (Eur J Med Chem, 2018).

Activity calls are given as the source filed them.

Data set [1] in a line: (§1) Antifibrotic activity against TGFbeta1 stimulated rat LTC-14 cells assessed as inhibition of collagen 1 synthesis at 0.5 uM after 24 hrs by ELISA relative to calcipotriol. To be noted: LTC-14, 24 h. It is filed as functional.
The species entered for data set [2] is Rattus norvegicus. Put plainly: Antifibrotic activity against TGFbeta1 stimulated rat LTC-14 cells assessed as inhibition of alpha-SMA level at 500 nM after 24 hrs by Western blot. It is filed as functional. (In western blotting, separated proteins are transferred to a membrane and probed.)
The species entered for data set [3] is Rattus norvegicus. Kind of data set: Antifibrotic activity against TGFbeta1 stimulated rat LTC-14 cells assessed as inhibition of collagen 1 level at 500 nM after 24 hrs by Western blot. The class given is functional.
The species entered for data set [4] is Rattus norvegicus. Described as §1. The class given is functional.
Data set [5] addresses T1, Vitamin D3 receptor (Homo sapiens) (UniProt P11473).
T1 sequence (whole entry): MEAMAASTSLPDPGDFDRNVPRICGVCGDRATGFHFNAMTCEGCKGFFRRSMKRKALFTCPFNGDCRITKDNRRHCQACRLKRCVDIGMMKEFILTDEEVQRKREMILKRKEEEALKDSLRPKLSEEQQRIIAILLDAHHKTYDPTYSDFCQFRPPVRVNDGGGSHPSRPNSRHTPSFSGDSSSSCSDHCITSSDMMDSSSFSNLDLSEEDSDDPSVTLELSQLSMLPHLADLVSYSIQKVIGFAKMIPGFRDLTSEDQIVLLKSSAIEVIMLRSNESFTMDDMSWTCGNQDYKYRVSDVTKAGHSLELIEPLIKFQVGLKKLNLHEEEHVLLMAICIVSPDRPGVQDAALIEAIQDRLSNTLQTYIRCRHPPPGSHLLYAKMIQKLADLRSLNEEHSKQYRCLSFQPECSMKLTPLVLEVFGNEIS
Put plainly: Transactivation of VDR (unknown origin) expressed in HEK293 cells harboring pENTER-CMV-human RXRalpha after 24 hrs by luciferase reporter gene assay. The class given is cell-based. (In general: Reporter assays use an easily measured gene product as a stand-in for the process of interest.)

For data set [6], the species on record is Rattus norvegicus. Put plainly: Antifibrotic activity against TGFbeta1 stimulated rat LTC-14 cells assessed as inhibition of alpha-SMA mRNA expression at 500 nM after 24 hrs by RT-qPCR analysis. The class given is functional. Background: Real-time PCR tracks product formation cycle by cycle.
For data set [7], the system named is Mus musculus. Put plainly: Toxicity in caerulein induced chronic pancreatic C57BL/6J mouse model assessed as serum calcium levels at 0.5 mg/kg, po administered via gavage treated for 5 times per week measured after 3 days (reference value: 0.25 umol/ml). It is filed as organism-based. Conditions: in vivo, 72 h.
The species named for data set [8] is Rattus norvegicus. Kind of data set: Antifibrotic activity against TGFbeta1 stimulated rat LTC-14 cells assessed as inhibition of collagen 1 alpha 1 mRNA expression at 500 nM after 24 hrs by RT-qPCR analysis. The class given is functional.
In data set [9] the test system is Mus musculus. Put plainly: Toxicity in caerulein induced chronic pancreatic C57BL/6J mouse model assessed as reduction in body weight at 0.5 mg/kg, po administered via gavage treated for 5 times per week measured after 3 days. It is filed as organism-based. To be noted: in vivo, 72 h.
The target in data set [10] is T1, Vitamin D3 receptor (Homo sapiens). Kind of data set: Transactivation of VDR (unknown origin) expressed in HEK293 cells harboring pENTER-CMV-human RXRalpha at 10^-8M to 10^-6M after 24 hrs by luciferase reporter gene assay. It is filed as cell-based.
The nature of data set [11]: Half life in C57BL/6J mouse at 10 mg/kg, iv by HPLC analysis. It is filed as ADME, organism-based. Conditions: in vivo.
Data set [12] deals with Mus musculus. Kind of data set: Toxicity in caerulein induced chronic pancreatic C57BL/6J mouse model assessed as change in serum calcium levels at 0.5 mg/kg, po administered via gavage treated for 5 times per week measured after 3 days. It is filed as organism-based. To be noted: in vivo, 72 h.
Data set [13] deals with Mus musculus. Kind of data set: Antifibrotic activity in caerulein induced chronic pancreatic C57BL/6J mouse model assessed as inhibition of pancreas lesions at 0.5 mg/kg, po administered via gavage treated for 5 times per week measured after 3 days by hematoxylin and eosin staining based histopathological analysis. The class given is functional, organism-based.
Data set [14] deals with Mus musculus. Kind of data set: Antifibrotic activity in caerulein induced chronic pancreatic C57BL/6J mouse model assessed as inhibition of alpha-SMA expression in interstitial area of pancreas tissue at 0.5 mg/kg, po administered via gavage treated for 5 times per week measured after 3 days by immunohistochemistry analysis. It is filed as functional, organism-based.
Data set [15] deals with Mus musculus. Put plainly: Toxicity in caerulein induced chronic pancreatic C57BL/6J mouse model assessed as change in body weight at 0.5 mg/kg, po administered via gavage treated for 5 times per week measured after 3 days. It is filed as organism-based. Conditions: in vivo, 72 h.
Data set [16] is described as follows: Oral bioavailability in C57BL/6J mouse at 20 mg/kg by HPLC analysis. Conditions: in vivo. The class given is ADME, organism-based.
Data set [17] is described as follows: Clearance in C57BL/6J mouse at 20 mg/kg, po by HPLC analysis. Conditions: in vivo. It is filed as ADME, organism-based.
Data set [18] can be described thus: Clearance in C57BL/6J mouse at 10 mg/kg, iv by HPLC analysis. To be noted: in vivo. It is filed as ADME, organism-based.
Data set [19] is described as follows: AUC (0 to infinity) in C57BL/6J mouse at 10 mg/kg, iv by HPLC analysis. The class given is ADME, organism-based. On the set-up: dose 10 mg/kg, time infinity, route intravenous. Conditions: in vivo.
A short description of data set [20]: MRT in C57BL/6J mouse at 20 mg/kg, po by HPLC analysis. It is filed as ADME, organism-based. To be noted: in vivo.
Data set [21] is described as follows: MRT in C57BL/6J mouse at 10 mg/kg, iv by HPLC analysis. It is filed as ADME, organism-based. Conditions: in vivo.
Data set [22] is described as follows: AUC (0 to infinity) in C57BL/6J mouse at 20 mg/kg, po by HPLC analysis. The class given is ADME, organism-based. On the set-up: dose 20 mg/kg, route oral, time infinity. To be noted: in vivo.
The test system of data set [23] is Mus musculus. Kind of data set: Antifibrotic activity in caerulein induced chronic pancreatic C57BL/6J mouse model assessed as inhibition of collagen deposition at 0.5 mg/kg, po administered via gavage treated for 5 times per week measured after 3 days by Masson's trichrome staining based histopathological analysis. It is filed as functional, organism-based.
Data set [24] can be described thus: Half life in C57BL/6J mouse at 20 mg/kg, po by HPLC analysis. It is filed as ADME, organism-based. Conditions: in vivo.

Regarding `CCC(CC)(c1ccc(OS(=O)(=O)c2ccc(C)cc2)c(C)c1)c1ccc(OCC(=O)C(C)(C)C)c(OCC(=O)C(C)(C)C)c1`, in [1], the inhibition at 0.5 µM was determined as 85%. In addition, the inhibition entry in the data set filed under Rattus norvegicus [2] and in the data set filed under Rattus norvegicus [3] was “Active” each time.

For the molecule `CCC(CC)(c1ccc(OCCCC(=O)O)c(C)c1)c1ccc(OCC(O)C(C)(C)C)c(OCC(O)C(C)(C)C)c1` (stereo not drawn), the inhibition result in the data set filed under Rattus norvegicus [4] is “inactive”.

Regarding `CCC(CC)(c1ccc(OCCCCO)c(C)c1)c1ccc(OCC(O)C(C)(C)C)c(OCC(O)C(C)(C)C)c1` (stereo not drawn), the inhibition at 0.5 µM in data set [1] turned out to be 189%. Moreover, the inhibition entry in the data set listed under Rattus norvegicus [2] and in the data set listed under Rattus norvegicus [3] was “Active” each time. Also, in data set [5], the Activity result was “Dose-dependent effect”.

With `CCC(CC)(c1ccc(OCCCCCCCO)c(C)c1)c1ccc(OCC(O)C(C)(C)C)c(OCC(O)C(C)(C)C)c1` (stereo not drawn), the inhibition entry in the data set filed under Rattus norvegicus [4] was “inactive”.

On to `CCC(CC)(c1ccc(OCCCCCCO)c(C)c1)c1ccc(OCC(O)C(C)(C)C)c(OCC(O)C(C)(C)C)c1` (stereo not drawn), for which the inhibition at 0.5 µM in [1] was determined as 74%.

For `C=C1/C(=C\C=C2/CCC[C@]3(C)[C@@H]([C@H](C)/C=C/[C@@H](O)C4CC4)CC[C@@H]23)C[C@@H](O)C[C@@H]1O` [CALCIPOTRIENE], the inhibition at 0.5 µM in [1] was found to be 100%. In addition, the inhibition entry in the data set listed under Rattus norvegicus [2], in the data set filed under Rattus norvegicus [6], in the data set listed under Rattus norvegicus [8] and in the data set filed under Rattus norvegicus [3] was “Active” each time. For the same molecule, the figures for the Activity in the data set with Mus musculus [7] and in the data set with Mus musculus [9] were 0.37 µmol/mL and “Toxic”, respectively. Further, in [10], the result was Active.

Regarding `CCC(CC)(c1ccc(OCC(O)CO)c(C)c1)c1ccc(OCC(O)C(C)(C)C)c(OCC(O)C(C)(C)C)c1` (stereo not drawn), the inhibition at 0.5 µM in [1] stood at 147%. In addition, in [5], the Activity entry is “Dose-dependent effect”.

For `CCC(CC)(c1ccc(OCCCCC(=O)O)c(C)c1)c1ccc(OCC(O)C(C)(C)C)c(OCC(O)C(C)(C)C)c1` (stereo not drawn), the inhibition entry in the data set listed under Rattus norvegicus [4] is “inactive”.

In the case of `CCC(CC)(c1ccc(OS(=O)(=O)c2ccccc2)c(C)c1)c1ccc(OCC(O)C(C)(C)C)c(OCC(O)C(C)(C)C)c1` (stereo not drawn), the inhibition at 0.5 µM in data set [1] was determined as 23%.

With `CCC(CC)(c1ccc(OS(=O)(=O)c2ccc([N+](=O)[O-])cc2)c(C)c1)c1ccc(OCC(O)C(C)(C)C)c(OCC(O)C(C)(C)C)c1` (stereo not drawn), the inhibition at 0.5 µM in data set [1] was 82%.

`CCC(CC)(c1ccc(OCCCCCO)c(C)c1)c1ccc(OCC(O)C(C)(C)C)c(OCC(O)C(C)(C)C)c1` (stereo not drawn): the inhibition at 0.5 µM in data set [1] amounted to 133%.

On to `CCC(CC)(c1ccc(OS(C)(=O)=O)c(C)c1)c1ccc(OCC(O)C(C)(C)C)c(OCC(O)C(C)(C)C)c1` (stereo not drawn), for which the inhibition at 0.5 µM in data set [1] is 8%.

Consider `CCC(CC)(c1ccc(OS(=O)(=O)c2ccc(C)cc2)c(C)c1)c1ccc(OCC(O)C(C)(C)C)c(OCC(O)C(C)(C)C)c1` (stereo not drawn), for which the inhibition at 0.5 µM in [1] was determined as 137%.

Regarding `CCC(CC)(c1ccc(OCC(O)CO)c(C)c1)c1ccc(OCC(O)C(C)(C)C)c(C)c1` (stereo not drawn) [LG-190178], the inhibition at 0.5 µM in data set [1] was 97%. Also, the inhibition result in the data set listed under Rattus norvegicus [2], in the data set listed under Rattus norvegicus [6], in the data set filed under Rattus norvegicus [8] and in the data set filed under Rattus norvegicus [3] was “Active” throughout. Besides, the outcome in data set [10] was Active.

Consider `CCC(CC)(c1ccc(OCCCCCCC(=O)O)c(C)c1)c1ccc(OCC(O)C(C)(C)C)c(OCC(O)C(C)(C)C)c1` (stereo not drawn), for which, in the data set filed under Rattus norvegicus [4], the inhibition result was “inactive”.

Turning to `CCC(CC)(c1ccc(OCCCCCC(=O)O)c(C)c1)c1ccc(OCC(O)C(C)(C)C)c(OCC(O)C(C)(C)C)c1` (stereo not drawn), the inhibition result in the data set filed under Rattus norvegicus [4] was “inactive”.

Consider `CCC(CC)(c1ccc(OCC(=O)O)c(C)c1)c1ccc(OCC(O)C(C)(C)C)c(OCC(O)C(C)(C)C)c1` (stereo not drawn), for which the inhibition result in the data set listed under Rattus norvegicus [4] is “inactive”.

Consider `CCC(CC)(c1ccc(OCCCO)c(C)c1)c1ccc(OCC(O)C(C)(C)C)c(OCC(O)C(C)(C)C)c1` (stereo not drawn), for which the values for the half-life in data set [11] and in data set [24] were 2.66 h and 4.12 h, respectively. The inhibition at 0.5 µM in data set [1] is 172%. Further, the Activity entry in the data set with Mus musculus [12] was “Non-Toxic”; in the data set with Mus musculus [15], “Non-Toxic”; in data set [5], “Dose-dependent effect”. Also, the inhibition result in the data set on Mus musculus [13], in the data set with Mus musculus [14], in the data set filed under Rattus norvegicus [2], in the data set filed under Rattus norvegicus [6], in the data set listed under Rattus norvegicus [8] and in the data set listed under Rattus norvegicus [3] was “Active” throughout. The inhibition result in the data set with Mus musculus [23] is “Active”. The molecule further came in with a bioavailability in data set [16] of 31.6%. Besides, the CL/F in data set [17] is 20.2 mL/min. The molecule also gave a clearance in data set [18] of 5.17 mL/min. In addition, the AUC(0-inf) in data set [19] amounted to 32600 ng·h/mL; in data set [22], 20600 ng·h/mL. Further, the figures for the MRT in data set [20] and in data set [21] were 6.59 h and 4.65 h, respectively.

For `CCC(CC)(c1ccc(OCCO)c(C)c1)c1ccc(OCC(O)C(C)(C)C)c(OCC(O)C(C)(C)C)c1` (stereo not drawn), the inhibition at 0.5 µM in data set [1] amounted to 128%. The inhibition result in the data set filed under Rattus norvegicus [2] and in the data set filed under Rattus norvegicus [3] was “Active” each time.
